Laboratory results as given in US20260250318A1, “COMPOSITIONS AND METHODS FOR CROSSING THE BLOOD BRAIN BARRIER” (VOYAGER THERAPEUTICS, INC., priority 2022, published 2026).

Tests used:
brain [1] = assay: NGS fold enrichment of synthetic library (passage 3) in C57Bl/6 mice, first cross-species screen; assay type: in vivo; settings: synthetic library passage 3, intravenous, relative to wild-type AAV9
Summary of the method: (§1)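 Synthetic capsid library (passage 3) was given intravenously […] to NHPs aged 2-4 years and to BALB/c and C57Bl/6 mice (n=3 each, 6-8 weeks). After about 28 days in vivo, tissue RNA was RT-PCR amplified and NGS-sequenced; values are fold enrichment per variant relative to wild-type AAV9.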

brain [2] = assay: NGS fold enrichment of synthetic library (passage 3) in BALB/c mice, first cross-species screen; assay type: in vivo; settings: synthetic library passage 3, intravenous, relative to wild-type AAV9
Summary of the method: as §1

[3] = test system: brain, spinal cord, and DRG of the NHPs; assay: NGS fold enrichment of synthetic library (passage 3) in NHPs, first cross-species screen; assay type: in vivo, cynomolgus macaques (Macaca fascicularis); settings: synthetic library passage 3, intravenous, relative to wild-type AAV9
Summary of the method: as §1

brain [4] = assay: Matured TTM-001 and TTM-002 variants, NGS enrichment in mouse brain; assay type: in vivo, mice; settings: relative to AAV9 control
[5] = test system: brains, heart, liver, muscle, and DRG of the NHPs; assay: Maturation of TTM-001 and TTM-002 capsids, NGS enrichment in NHP tissues; assay type: in vivo; settings: relative to AAV9 control
Summary of the method: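 Variants carry mutations within and flanking the loop IV peptide insert: positions 450–466 were triplet-randomized, while positions 449–466 received low-frequency point mutations. The combined pool went into two NHPs, and each peptide was scored by NGS enrichment ratio against AAV9.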

[6] = NGS fold-enrichment, brain of mice
[7] = NGS fold-enrichment, DRG of NHPs
[8] = NGS fold-enrichment, RNA, brain of NHPs
[9] = NGS fold-enrichment, heart of NHPs
[10] = NGS fold-enrichment, liver DNA of NHPs
[11] = NGS fold-enrichment, liver RNA of NHPs
[12] = NGS fold-enrichment, muscle of NHPs
[13] = NGS fold-enrichment of matured AAV capsid variants, NHP brain, RNA

For GVVAAHNSGQNQQT, the “Fold enrichment over AAV9 in the brain of Mice (C57Bl/6)” value (shortened to “Fold enrichment over AAV9 … (C57Bl/6)”) (brain [1]; RNA NGS, brain of C57Bl/6 mice) was 1.196 fold, the “Fold enrichment over AAV9 in the brain of Mice (BALB/c)” value (“Fold enrichment over AAV9 … (BALB/c)” for short) (brain [2]; RNA NGS, brain of BALB/c mice) was 1.336 fold and the “Fold enrichment over AAV9 in the brain of NHPs” value ([3]; RNA NGS, brain of NHPs) was 2.202 fold. For the same sequence, the “Fold enrichment over AAV9 in the spinal cord of NHPs” value ([3]; RNA NGS, spinal cord of NHPs) was 1.301 fold.
For GVVAHQPSGQNQQT, the “Fold enrichment over AAV9 … (C57Bl/6)” value (brain [1]; RNA NGS, brain of C57Bl/6 mice) was 0.910 fold, the “Fold enrichment over AAV9 … (BALB/c)” value (brain [2]; RNA NGS, brain of BALB/c mice) was 2.267 fold and the “Fold enrichment over AAV9 in the brain of NHPs” value ([3]; RNA NGS, brain of NHPs) was 2.103 fold. The “Fold enrichment over AAV9 in the spinal cord of NHPs” value ([3]; RNA NGS, spinal cord of NHPs) was 0.152 fold.
GVVHITNSGQNQQT was tested, and the “Fold enrichment over AAV9 … (C57Bl/6)” value (brain [1]; RNA NGS, brain of C57Bl/6 mice) was 0.794 fold, the “Fold enrichment over AAV9 … (BALB/c)” value (brain [2]; RNA NGS, brain of BALB/c mice) was 0.846 fold and the “Fold enrichment over AAV9 in the brain of NHPs” value ([3]; RNA NGS, brain of NHPs) was 1.969 fold. For the same sequence, the “Fold enrichment over AAV9 in the spinal cord of NHPs” value ([3]; RNA NGS, spinal cord of NHPs) was 0.504 fold.
With GVVRNHQSGQNQQT the “Fold enrichment over AAV9 … (C57Bl/6)” value (brain [1]; RNA NGS, brain of C57Bl/6 mice) was 0.899 fold, the “Fold enrichment over AAV9 … (BALB/c)” value (brain [2]; RNA NGS, brain of BALB/c mice) was 0.868 fold and the “Fold enrichment over AAV9 in the brain of NHPs” value ([3]; RNA NGS, brain of NHPs) was 1.116 fold. The “Fold enrichment over AAV9 in the spinal cord of NHPs” value ([3]; RNA NGS, spinal cord of NHPs) was 5.801 fold.
For GWERSFVSGQNQQT, the “Fold enrichment over AAV9 … (C57Bl/6)” value (brain [1]; RNA NGS, brain of C57Bl/6 mice) was 0.490 fold, the “Fold enrichment over AAV9 … (BALB/c)” value (brain [2]; RNA NGS, brain of BALB/c mice) was 0.538 fold and the “Fold enrichment over AAV9 in the brain of NHPs” value ([3]; RNA NGS, brain of NHPs) was 1.492 fold. For the same sequence, the “Fold enrichment over AAV9 in the spinal cord of NHPs” value ([3]; RNA NGS, spinal cord of NHPs) was 0.943 fold.
With GYEVLGSSGQNQQT the “Fold enrichment over AAV9 … (C57Bl/6)” value (brain [1]; RNA NGS, brain of C57Bl/6 mice) was 2.459 fold, the “Fold enrichment over AAV9 … (BALB/c)” value (brain [2]; RNA NGS, brain of BALB/c mice) was 0.319 fold and the “Fold enrichment over AAV9 in the brain of NHPs” value ([3]; RNA NGS, brain of NHPs) was 2.891 fold. The “Fold enrichment over AAV9 in the spinal cord of NHPs” value ([3]; RNA NGS, spinal cord of NHPs) was 0.000 fold.
In the case of GYFVAAWSGQNQQT, the “Fold enrichment over AAV9 … (C57Bl/6)” value (brain [1]; RNA NGS, brain of C57Bl/6 mice) was 0.071 fold, the “Fold enrichment over AAV9 … (BALB/c)” value (brain [2]; RNA NGS, brain of BALB/c mice) was 0.175 fold and the “Fold enrichment over AAV9 in the brain of NHPs” value ([3]; RNA NGS, brain of NHPs) was 4.488 fold. For the same sequence, the “Fold enrichment over AAV9 in the spinal cord of NHPs” value ([3]; RNA NGS, spinal cord of NHPs) was 0.000 fold.
For GYTRLETSGQNQQT, the “Fold enrichment over AAV9 … (C57Bl/6)” value (brain [1]; RNA from brain of C57Bl/6 mice, NGS) was 0.841 fold, the “Fold enrichment over AAV9 … (BALB/c)” value (brain [2]; RNA from brain of BALB/c mice, NGS) was 0.297 fold and the “Fold enrichment over AAV9 in the brain of NHPs” value ([3]; RNA from brain of NHPs, NGS) was 1.250 fold. The “Fold enrichment over AAV9 in the spinal cord of NHPs” value ([3]; RNA from spinal cord of NHPs, NGS) was 1.323 fold.
For KAEHGSGSPHSKAQNQQT, the “Fold Enrichment relative to AAV9, Brain (Mouse)” value (brain [4]; [6]) was 116.201 fold, the “Fold Enrichment relative to AAV9, DRG (NHP)” value [5, 7] was 0.000 fold and the “Fold Enrichment relative to AAV9, Brain (NHP)” value [5, 8] was 61.830 fold. For the same sequence, the “Fold Enrichment relative to AAV9, Heart (NHP)” value [5, 9] was 0.000 fold, the “Fold Enrichment relative to AAV9, Liver DNA (NHP)” value [5, 10] was 0.184 fold and the “Fold Enrichment relative to AAV9, Liver RNA (NHP)” value [5, 11] was 0.772 fold. For the same sequence, the “Fold Enrichment relative to AAV9, Muscle (NHP)” value [5, 12] was 0.000 fold.
For KAEMGSGSPHSKAQNQQT, the “Fold Enrichment relative to AAV9, Brain (Mouse)” value (brain [4]; [6]) was 135.019 fold, the “Fold Enrichment relative to AAV9, Brain (Mouse)” value (brain [4]; NGS fold-enrichment, mouse brain) was 135.019 fold and the “Fold Enrichment relative to AAV9, Brain (NHP)” value ([5]; NGS fold-enrichment of RNA, NHP brain) was 83.049 fold. For the same sequence, the “Fold Enrichment relative to AAV9, DRG (NHP)” value [5, 7] was 0.000 fold, the “Fold Enrichment relative to AAV9, DRG (NHP)” value ([5]; NGS fold-enrichment, NHP DRG) was 0.000 fold and the “Fold Enrichment relative to AAV9, Heart (NHP)” value ([5]; NGS fold-enrichment, NHP heart) was 0.020 fold. For the same sequence, the “Fold Enrichment relative to AAV9, Liver DNA (NHP)” value ([5]; NGS fold-enrichment, NHP liver DNA) was 0.112 fold, the “Fold Enrichment relative to AAV9, Liver RNA (NHP)” value ([5]; NGS fold-enrichment, NHP liver RNA) was 0.768 fold and the “Fold Enrichment relative to AAV9, Muscle (NHP)” value ([5]; NGS fold-enrichment, NHP muscle) was 0.000 fold. For the same sequence, the “Fold Enrichment relative to AAV9, Brain (NHP)” value [5, 8] was 83.049 fold, the “Fold Enrichment relative to AAV9, Heart (NHP)” value [5, 9] was 0.020 fold and the “Fold Enrichment relative to AAV9, Liver DNA (NHP)” value [5, 10] was 0.112 fold. The “Fold Enrichment relative to AAV9, Liver RNA (NHP)” value [5, 11] was 0.768 fold and the “Fold Enrichment relative to AAV9, Muscle (NHP)” value [5, 12] was 0.000 fold.
With KAENGSGSPHSKAQNQQT the “Fold Enrichment relative to AAV9, Brain (Mouse)” value (brain [4]; mouse brain) was 120.256 fold, the “Fold Enrichment relative to AAV9, Brain (NHP)” value [5, 13] was 52.487 fold and the “Fold Enrichment relative to AAV9, DRG (NHP)” value ([5]; NHP DRG) was 0.000 fold. The “Fold Enrichment relative to AAV9, Heart (NHP)” value ([5]; NHP heart) was 0.157 fold, the “Fold Enrichment relative to AAV9, Liver DNA (NHP)” value ([5]; NHP liver, DNA) was 0.242 fold and the “Fold Enrichment relative to AAV9, Liver RNA (NHP)” value ([5]; NHP liver, RNA) was 0.000 fold. For the same sequence, the “Fold Enrichment relative to AAV9, Muscle (NHP)” value ([5]; NHP muscle) was 0.029 fold.
With KAETGSGSPHSKAQNQQT the “Fold Enrichment relative to AAV9, Brain (Mouse)” value (brain [4]; mouse brain) was 132.940 fold, the “Fold Enrichment relative to AAV9, Brain (NHP)” value [5, 13] was 52.219 fold and the “Fold Enrichment relative to AAV9, DRG (NHP)” value ([5]; NHP DRG) was 0.000 fold. For the same sequence, the “Fold Enrichment relative to AAV9, Heart (NHP)” value ([5]; NHP heart) was 0.047 fold, the “Fold Enrichment relative to AAV9, Liver DNA (NHP)” value ([5]; NHP liver, DNA) was 0.188 fold and the “Fold Enrichment relative to AAV9, Liver RNA (NHP)” value ([5]; NHP liver, RNA) was 0.009 fold. For the same sequence, the “Fold Enrichment relative to AAV9, Muscle (NHP)” value ([5]; NHP muscle) was 0.581 fold.
